Read-outs that look alike come from different tables or passages of the source.
How the values were obtained:
[1] = tested on: Mycosphaerella graminicola; Anamorph: Septoria tritici; assay: Leaf Blotch of Wheat (SEPTTR) fungicidal activity on wheat seedlings; format: in vivo; settings: Zymoseptoria tritici, Low Volume, 121.5 g/H
Experimental: Example A: Evaluation of Fungicidal Activity: Leaf Blotch of Wheat (Mycosphaerella graminicola; Anamorph: Septoria tritici; Bayer code […]): Technical grades of materials were dissolved in acetone, which were then mixed with nine volumes of water (H2O) containing 110 ppm Triton X-100. The fungicide solutions were applied onto wheat seedlings using an automated booth sprayer to run-off. All sprayed plants were allowed to air dry prior to further handling. All fungicides were evaluated using the aforementioned method for their activity vs. all target diseases, unless stated otherwise. Wheat leaf blotch and brown rust activity were also evaluated using track spray applications, in which case the fungicides were formulated as EC formulations, containing 0.1% Trycol 5941 in the spray solutions. Wheat plants (variety Yuma) were grown from seed in a greenhouse in 50% mineral soil/50% soil-less Metro mix until the first leaf was fully emerged, with 7-10 seedlings per pot. These plants were inoculated with an aqueous spore suspension of Septoria tritici either prior to or after fungicide treatments. After inoculation the plants were kept in 100% relative humidity (one day in a dark dew chamber followed by two to three days in a lighted dew chamber at 20° C.) to permit spores to germinate and infect the leaf. The plants were then transferred to a greenhouse set at 20° C. for disease to develop. When disease symptoms were fully expressed on the 1st leaves of untreated plants, infection levels were assessed on a scale of 0 to 100 percent disease severity. Percent disease control was calculated using the ratio of disease severity on treated plants relative to untreated plants.

[2] = tested on: Puccinia triticina; Synonym: Puccinia recondita f sp. tritici; assay: Wheat Brown Rust (PUCCRT) fungicidal activity on wheat seedlings; format: in vivo; settings: Low Volume, 121.5 g/H
Experimental: Technical grades of materials were dissolved in acetone, which were then mixed with nine volumes of water (H2O) containing 110 ppm Triton X-100. The fungicide solutions were applied onto wheat seedlings using an automated booth sprayer to run-off. All sprayed plants were allowed to air dry prior to further handling. All fungicides were evaluated using the aforementioned method for their activity vs. all target diseases, unless stated otherwise. Wheat leaf blotch and brown rust activity were also evaluated using track spray applications, in which case the fungicides were formulated as EC formulations, containing 0.1% Trycol 5941 in the spray solutions. Wheat plants (variety Yuma) were grown from seed in a greenhouse in 50% mineral soil/50% soil-less Metro mix until the first leaf was fully emerged, with 7-10 seedlings per pot. These plants were inoculated with an aqueous spore suspension of Septoria tritici either prior to or after fungicide treatments. After inoculation the plants were kept in 100% relative humidity (one day in a dark dew chamber followed by two to three days in a lighted dew chamber at 20° C.) to permit spores to germinate and infect the leaf. The plants were then transferred to a greenhouse set at 20° C. for disease to develop. When disease symptoms were fully expressed on the 1st leaves of untreated plants, infection levels were assessed on a scale of 0 to 100 percent disease severity. Percent disease control was calculated using the ratio of disease severity on treated plants relative to untreated plants. Example B: Evaluation of Fungicidal Activity: Wheat Brown Rust (Puccinia triticina; Synonym: Puccinia recondita f sp. tritici; Bayer code PUCCRT): Wheat plants (variety Yuma) were grown from seed in a greenhouse in 50% mineral soil/50% soil-less Metro mix until the first leaf was fully emerged, with 7-10 seedlings per pot. These plants were inoculated with an aqueous spore suspension of Puccinia triticina either prior to or after fungicide treatments. After inoculation the plants were kept in a dark dew room at 22° C. with 100% relative humidity overnight to permit spores to germinate and infect the leaf. The plants were then transferred to a greenhouse set at 24° C. for disease to develop. Fungicide formulation, application and disease assessment followed the procedures as described in the Example A.

[3] = 24 h, 1 Day Protectant, read-out: SEPTTR 1DP disease control
[4] = 72 h, 3 Day Curative, read-out: SEPTTR 3DC disease control
[5] = 24 h, 1 Day Protectant, read-out: PUCCRT 1DP disease control
[6] = 72 h, 3 Day Curative, read-out: PUCCRT 3DC disease control

| SMILES | pest or weed control at 121.5 g/ha [1, 3] [%] | pest or weed control at 121.5 g/ha [1, 4] [%] | pest or weed control at 121.5 g/ha [2, 5] [%] | pest or weed control at 121.5 g/ha [2, 6] [%] |
| --- | --- | --- | --- | --- |
| COc1ccnc(C(=O)N[C@@H](C)C(=O)O[C@@H](C)C(c2ccc(Br)cc2)c2ccc(Br)cc2)c1OCOC(C)=O [Cmpd 169] | > 80 | > 80 | > 80 | < 80 |
| COc1ccnc(C(=O)N[C@@H](C)C(=O)O[C@@H](C)C(c2ccc(C)s2)c2ccc(C)s2)c1OCOC(C)=O [Cmpd 170] | < 80 | < 80 | < 80 | < 80 |
| COc1ccnc(C(=O)N[C@@H](C)C(=O)O[C@@H](C)C(c2ccc(C)cc2)c2ccc(C)cc2)c1OCOC(C)=O [Cmpd 171] | > 80 | > 80 | > 80 | > 80 |
| COc1ccnc(C(=O)N[C@@H](C)C(=O)O[C@@H](C)[C@@H](c2ccccc2)c2ccc(C(F)(F)F)cc2)c1OC(C)=O [Cmpd 173] | > 80 | > 80 | > 80 | < 80 |
| COc1ccnc(C(=O)N[C@@H](C)C(=O)O[C@@H](C)[C@@H](c2ccccc2)c2ccc(C(F)(F)F)cc2)c1OCOC(C)=O [Cmpd 175] | > 80 | > 80 | > 80 | > 80 |
| CC(=O)OCOc1cccnc1C(=O)N[C@@H](C)C(=O)O[C@@H](C)C(c1ccc(F)cc1)c1ccc(F)cc1 [Cmpd 178] | > 80 | > 80 | < 80 | – |
| CCOc1ccnc(C(=O)N[C@@H](C)C(=O)O[C@@H](C)C(c2ccc(F)cc2)c2ccc(F)cc2)c1OCOC(C)=O [Cmpd 179] | > 80 | > 80 | < 80 | – |
| COc1ccnc(C(=O)N[C@@H](C)C(=O)O[C@@H](C)C(c2ccc(-c3ccccc3)cc2)c2ccc(-c3ccccc3)cc2)c1OC(C)=O [Cmpd 182] | – | < 80 | – | < 80 |
| COc1ccnc(C(=O)NCC(=O)O[C@@H](C)C(c2ccc(F)cc2)c2ccc(F)cc2)c1OCOC(C)=O [Cmpd 183] | > 80 | < 80 | > 80 | > 80 |
| CC[C@H](NC(=O)c1nccc(OC)c1OCOC(C)=O)C(=O)O[C@@H](C)C(c1ccc(F)cc1)c1ccc(F)cc1 [Cmpd 184] | > 80 | > 80 | > 80 | > 80 |
| COc1ccnc(C(=O)N[C@H](C(=O)O[C@@H](C)C(c2ccc(F)cc2)c2ccc(F)cc2)C(C)C)c1OCOC(C)=O [Cmpd 185] | > 80 | > 80 | > 80 | < 80 |
| COc1ccnc(C(=O)N[C@@H](CC(C)C)C(=O)O[C@@H](C)C(c2ccc(F)cc2)c2ccc(F)cc2)c1OCOC(C)=O [Cmpd 186] | > 80 | < 80 | < 80 | – |
| COc1ccnc(C(=O)NCC(=O)O[C@@H](C)C(c2ccc(F)cc2)c2ccc(F)cc2)c1OC(C)=O [Cmpd 187] | < 80 | < 80 | > 80 | < 80 |
| CC[C@H](NC(=O)c1nccc(OC)c1OC(C)=O)C(=O)O[C@@H](C)C(c1ccc(F)cc1)c1ccc(F)cc1 [Cmpd 188] | > 80 | > 80 | > 80 | < 80 |

Reference: patent US20240423207A1, “PICOLINAMIDE COMPOUNDS WITH FUNGICIDAL ACTIVITY” (CORTEVA AGRISCIENCE LLC, priority 2014, published 2024)
